Reference: patent publication EP4711366A1, “PYRIMIDO MACROHETEROCYCLIC COMPOUND AS WEE1-YES DUAL-TARGET INHIBITOR AND USE THEREOF” (Mindrank AI Ltd., priority 2023, dated 2024)

Tests used:
YES1 kinase = YES1 kinase (Homo sapiens, UniProt P07947); assay: YES1 protein kinase inhibitory activity assay (HTRF); type: biochemical; conditions: for IC50: HTRF, YES1 kinase, ATP 10 µM; for inhibition of the Yes target (in words): summary statement on the assay results
Description: In this experiment, the capability of the compound MRANK-106 of the present disclosure to inhibit kinase activity was assessed by an HTRF method using a drug screening system based on the YES1 kinase.
Table 3-1. Information about reagents and consumables
The enzymatic activity conditions and HTRF system formulation are shown in Table 3-3; the experimental conditions for the kinase activity assay are shown in Table 3-4. Table 3-3. HTRF system formulation
Table 3-4. The experimental conditions for the kinase activity assay
The test compound MRANK-106 was dissolved in DMSO, and the solution was vortexed and shaken for thorough mixing. The solution was serially diluted 3-fold with DMSO, with the initial concentration being 503 nM.
① A 2× ATP/substrate solution and a 2× kinase solution were formulated using a kinase reaction buffer.
② 50 nL of the compound dilution was transferred to a 384 detection plate using Echo 655. After centrifugation, 2.5 µL of a 2× kinase solution was added to the 384 detection plate. The plate was centrifuged at 1000 rpm for 1 min and incubated at 25 °C for 10 min.
② 2.5 µL of the 2× substrate and ATP solution was added to the 384 detection plate, and the plate was centrifuged at 1000 rpm for 1 min and incubated at 25 °C for 60 min.
④ A 2× XL665 and antibody detection reagent was formulated using a detection buffer.
⑤ 5 µL of a kinase detection reagent was added to the detection plate, and the plate was incubated at 25 °C. The plate was centrifuged at 1000 rpm for 1 min and incubated at 25 °C for 1 h.
⑥ The fluorescence signals at 620 nm (Cryptate) and 665 nm (XL665) were read using a BMG high-throughput drug-screening multi-mode microplate reader.
With the reading of the negative control set as an inhibition rate of 0% and the reading of the positive control set as an inhibition rate of 100%, the inhibition rate of each test solution was calculated using the following formula: [formula] • Datapositive control: the average of the positive control well values • Datanegative control : the average of the negative control well values
The IC50 (half maximal inhibitory concentration) of the compound was obtained using the following nonlinear fitting formulas: Y = Bottom + (Top−Bottom)/(1+10^(∧)((LogIC50−X)*HillSlope)) [formula] • X: the log value of the compound concentration • Y: the inhibition rate (% inh) of the compound
The Z' factor calculation equation: Z′ = 1−3(SDmin+SDmax)/(AVEmax−AVEmin) [formula] where: • Min is the positive control Data value, and Max is the negative control DMSO Data value; • SD stands for standard deviation, and AVE stands for average.

A427 cells = assay: Tumor cell proliferation inhibitory activity assay (CCK-8); type: cell-based, Human; conditions: for IC50: CCK-8; for activity in inhibiting cancer cell proliferation compared with reference compound Debio 0123 or ZN-c3: comparison in words
Description: Human lung cancer A427 cells are cancer cells reported to be sensitive to wee1 inhibitors. In this assay, the anti-cancer effects of the compounds of the present disclosure were verified by assessing the activity of the test substances in inhibiting A427 cell proliferation.
A427 cells were cultured according to the cell culture instructions, and cells in the logarithmic growth phase were collected, counted, resuspended in a complete culture medium, and inoculated into a 96-well plate at a cell concentration of 100 µL/3000 cells/well. The cells were incubated in an incubator at 37 °C with 100% relative humidity and 5% CO2 for 24 h.
The compounds to be tested were dissolved in DMSO and diluted 4-fold with a culture medium from 10 µM to 10 concentration gradients.
The culture medium waste was pipetted off, and 100 µL of the formulated culture medium of the compound to be tested was added to each well. The cells were incubated in an incubator at 37 °C with 100% relative humidity and 5% CO2 for 72 h.
The plate was taken out, the CCK-8 reagent was added at 10 µL/well, and the plate was incubated in an incubator at 37 °C for 2-4 h.
The cell growth inhibition rates of the drugs were calculated using the following formula: Cell growth inhibition rate% = [(Ac−As)/(Ac−Ab)] × 100% [formula] • As: the OA of the samples (cells + CCK-8 + compounds to be tested) • Ac: the OA of the normal growth cell control (cells + CCK-8) • Ab: the OA of the blank control (culture medium + CCK-8)
IC50 curve fitting was performed using the software Graphpad Prism 6 and the calculation formula XY-analysis/Nonlinear regression(curve fit)/Dose response-Inhibition/log(inhibitor)vs. response-Variable slope(four parameters), and the IC50 values were calculated. Table 1. Data analysis and results for some representative compounds

Wee1 kinase = Wee1 kinase (Homo sapiens, UniProt P30291); assay: WEE1 protein kinase inhibitory activity assay (ADP-GLO luminescence); type: biochemical; conditions: for IC50: Wee1 10 ng/well, ATP 10 µM, 3 h, 37 °C; for inhibition of the Weel target (in words): summary statement on the assay results
Sequence of Wee1 kinase (P30291 whole entry): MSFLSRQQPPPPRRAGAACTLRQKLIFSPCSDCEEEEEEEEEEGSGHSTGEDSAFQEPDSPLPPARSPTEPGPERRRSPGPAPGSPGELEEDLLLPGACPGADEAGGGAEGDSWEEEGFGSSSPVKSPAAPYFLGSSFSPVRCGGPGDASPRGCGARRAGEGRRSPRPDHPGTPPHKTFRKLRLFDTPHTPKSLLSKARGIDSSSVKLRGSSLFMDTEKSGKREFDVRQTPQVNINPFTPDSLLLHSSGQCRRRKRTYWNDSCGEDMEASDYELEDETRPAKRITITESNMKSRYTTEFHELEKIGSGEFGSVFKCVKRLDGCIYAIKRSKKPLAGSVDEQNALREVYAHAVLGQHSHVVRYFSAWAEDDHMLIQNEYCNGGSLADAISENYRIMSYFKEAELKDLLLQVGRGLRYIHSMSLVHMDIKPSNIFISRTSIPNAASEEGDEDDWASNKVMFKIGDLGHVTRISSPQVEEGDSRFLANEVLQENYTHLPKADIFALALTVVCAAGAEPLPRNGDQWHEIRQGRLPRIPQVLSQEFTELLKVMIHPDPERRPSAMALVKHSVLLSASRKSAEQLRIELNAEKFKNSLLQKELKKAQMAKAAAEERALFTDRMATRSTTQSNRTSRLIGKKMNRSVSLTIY
Description: The influence of the compound MRANK-106 of the present disclosure on the kinase activity of Weel was assessed using an in vitro kinase reaction system.
Table 2-1. Information about reagents and consumables
① 1× kinase buffer: A 5× kinase buffer was diluted with ddH2O to make a 1× kinase buffer. Table 2-3. The reagent components added to the 1× kinase buffer
③ 5× enzyme working solution: The optimization of the enzyme concentration had been completed in previous work, and the concentration of the reagent used in the screening is shown in Table 2-4. A 5× enzyme working solution of the enzyme was formulated using the 1× kinase buffer.
④ Compound formulation: A 10 mM mother liquor was formulated using DMSO, aliquoted, and then stored at -20 °C. Immediately before use, the mother liquor was thawed, diluted with DMSO to 1 mM, serially diluted 4-fold to 10 concentration points, and then 40-fold diluted with the 1× kinase buffer to give a 2.5× working solution. Table 2-4. The experimental conditions for the kinase activity assay
After the above reagents were formulated and equilibrated to room temperature, 4 µL of the diluted solution of the compound to be tested and 2 µL of the formulated enzyme solution were added to reaction wells. After shaking and centrifugation, the plate was incubated at room temperature for 15 min, and 4 µL of the ATP solution was then added to start a kinase reaction. After 3 h of reaction at 37 °C, 10 µL of an ADP-GLO reagent was added. After thorough mixing, the mixture was left to react at room temperature for 40 min, and 20 µL of a detection reagent was then added. After 30 min of reaction at room temperature, the luminescence signals were detected using a SpectraMax L instrument. Two independent duplicate assays were performed. The inhibition rate of each well was calculated based on all activity wells and background signal wells, with an average calculated for duplicate wells. Meanwhile, the inhibition rate was plotted using the professional graphing and analysis software PRISM 9.0, and the IC50 was calculated.
The inhibition rates of the compounds to be tested against the kinase activity of Wee1 were calculated using the following formula: Inhibition rate% = (Lumvehicle−Lumcompound)/(Lumvehicle−Lumblank) × 100% [formula] • Lumcompound: the luminescence of the sample treatment groups • Lumvehicle: the luminescence of the solvent control group • Lumblank: the luminescence of the blank group

[1] = Homo sapiens, A-427, 72 h compound incubation

Sequence of YES1 kinase (P07947 whole entry): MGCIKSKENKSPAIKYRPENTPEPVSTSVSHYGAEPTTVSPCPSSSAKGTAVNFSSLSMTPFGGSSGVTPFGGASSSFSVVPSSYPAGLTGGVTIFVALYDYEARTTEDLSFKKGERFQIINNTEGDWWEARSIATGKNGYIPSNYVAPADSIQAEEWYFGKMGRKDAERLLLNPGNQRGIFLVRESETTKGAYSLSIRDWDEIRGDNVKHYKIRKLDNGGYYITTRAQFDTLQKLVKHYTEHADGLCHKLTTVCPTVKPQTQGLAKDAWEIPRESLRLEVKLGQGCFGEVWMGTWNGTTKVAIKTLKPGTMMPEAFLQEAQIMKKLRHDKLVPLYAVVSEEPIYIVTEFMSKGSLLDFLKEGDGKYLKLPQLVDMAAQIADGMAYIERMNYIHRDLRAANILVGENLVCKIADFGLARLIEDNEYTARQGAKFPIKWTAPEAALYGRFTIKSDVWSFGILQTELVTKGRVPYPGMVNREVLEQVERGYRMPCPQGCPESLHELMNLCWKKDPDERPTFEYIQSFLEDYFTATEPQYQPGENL

Compound	IC50 (YES1 kinase)	inhibition of the Yes target (in words) (YES1 kinase)	IC50 (A427 cells; [1])	IC50 (Wee1 kinase)	inhibition of the Weel target (in words) (Wee1 kinase)	activity in inhibiting cancer cell proliferation compared with reference compound Debio 0123 or ZN-c3 (A427 cells)	IC50 (A427 cells; 72 h compound incubation)
CCOP1(=O)CCN(c2ccc(Nc3ncc4c(=O)n5n(c4n3)-c3cccc(n3)C(C)(O)CCC=CC5)cc2C)CC1 (racemic) [Compound 182, (Z)-2-((4-(4-ethoxy-4-oxido-1,4-azaphosphinan-1-yl)-3-methylphenyl)amino)-12-hydroxy-12-methyl-7,10,11,12-tetrahydro-5H-13,17-(azeno)pyrimido[4',5':3,4]pyrazolo[1,2-a][1,2]diazacyclotridecin-5-one]	19.9 nM	strongly inhibited	160 nM	30.1 nM	strongly inhibited		
[2H]C1(Oc2ccc(Nc3ncc4c(=O)n5n(c4n3)-c3cccc(n3)[C@](C)(O)CCC=CC5)cc2C)CCN(C)CC1 (single isomer, unassigned) [Compound 172A]	5.8 nM	strongly inhibited	15 nM	6.5 nM	strongly inhibited	several times to several dozen times higher	
Cc1cc(Nc2ncc3c(=O)n4n(c3n2)-c2cccc(n2)C(C)(O)CC/C=C\C4)ccc1NC1CCN(C)CC1 (single isomer, unassigned) [Compound 203A]			71 nM	13.2 nM		several times to several dozen times higher	
Cc1cc(Nc2ncc3c(=O)n4n(c3n2)-c2cccc(n2)[C@](C)(O)CCCCC4)ccc1OC1CCN(C)CC1 [Compound 28, (R)-12-hydroxy-12-methyl-2-((3-methyl-4-((1-methylpiperidin-4-yl)oxy)phenyl)amino)-7,8,9,10,11,12-hexahydro-5H-13,17-(azeno)pyrimido[4',5':3,4]pyrazolo[1,2-a][1,2]diazacyclotridecin-5-one]			152 nM				
Cc1cc(Nc2ncc3c(=O)n4n(c3n2)-c2cccc(n2)C(C)(O)CCC=CC4)ccc1OC1(C)CCN(C)CC1 (stereo not shown) [Compound 89, (Z)-2-((4-((1,4-dimethylpiperidin-4-yl)oxy)-3-methylphenyl)amino)-12-hydroxy-12-methyl-7,10,11,12-tetrahydro-5H-13,17-(azeno)pyrimido[4',5':3,4]pyrazolo[1,2-a][1,2]diazacyclotridecin-5-one]	18.5 nM	strongly inhibited	219 nM	66.8 nM	strongly inhibited		
COc1cc(Nc2ncc3c(=O)n4n(c3n2)-c2cccc(n2)[C@](C)(O)CCC=CC4)ccc1OC1CCN(C)CC1 [Compound 143, (R,Z)-12-hydroxy-2-((3-methoxy-4-((1-methylpiperidin-4-yl)oxy)phenyl)amino)-12-methyl-7,10,11,12-tetrahydro-5H-13,17-(azeno)pyrimido[4',5':3,4]pyrazolo[1,2-a][1,2]diazacyclotridecin-5-one]			65 nM			several times to several dozen times higher	
Cc1cc(Nc2ncc3c(=O)n4n(c3n2)-c2cccc(n2)C(C)(O)CCC=CC4)ccc1OC1CN(C)[C@H]1C (stereo partly drawn) [Compound 202, (Z)-2-((4-(((2S)-1,2-dimethylazetidin-3-yl)oxy)-3-methylphenyl)amino)-12-hydroxy-12-methyl-7,10,11,12-tetrahydro-5H-13,17-(azeno)pyrimido[4',5':3,4]pyrazolo[1,2-a][1,2]diazacyclotridecin-5-one]	18.8 nM	strongly inhibited	78 nM	16.4 nM	strongly inhibited	several times to several dozen times higher	
Cc1cc(Nc2ncc3c(=O)n4n(c3n2)-c2cccc(n2)[C@](C)(O)CCC=CC4)ccc1OC1CCN(C2COC2)CC1 [Compound 205, (R,Z)-12-hydroxy-12-methyl-2-((3-methyl-4-((1-(oxetan-3-yl)piperidin-4-yl)oxy)phenyl)amino)-7,10,11,12-tetrahydro-5H-13,17-(azeno)pyrimido[4',5':3,4]pyrazolo[1,2-a][1,2]diazacyclotridecin-5-one]			163 nM				
CN1CCN(Cc2ccc(Nc3ncc4c(=O)n5n(c4n3)-c3cccc(n3)C(C)(O)CCC=CC5)cc2)CC1 (stereo not shown) [Compound 214, (Z)-12-hydroxy-12-methyl-2-((4-((4-methylpiperazin-1-yl)methyl)phenyl)amino)-7,10,11,12-tetrahydro-5H-13,17-(azeno)pyrimido[4',5':3,4]pyrazolo[1,2-a][1,2]diazacyclotridecin-5-one]			144 nM				
Cc1cc(Nc2ncc3c(n2)N(C)CN(c2c(Cl)cccc2Cl)C3=O)ccc1C1CCN(C)CC1 [Debio 0123, reference compound]							1610 nM
